What all share (format): cell-based, Hepatitis C virus
The test system of assay [1] is genotype 1a HCV replicon cells. The assay can be described thus: HCV replicon luciferase assay, genotype 1a (monotherapy and combination studies). To be noted: genotype 1a replicon, monotherapy, 3 days. Background: Replicon systems follow genome replication, usually without infectious particles.
In assay [2] the test system is genotype 1b HCV replicon cells. Briefly: HCV replicon luciferase assay, genotype 1b (monotherapy and combination studies). How it is done: (§1) The Huh-7 cell-line used for these studies was obtained from Dr. Ralf Bartenschlager (University of Heidelberg, Heidelberg, Germany) and was propagated in DMEM containing 10% FBS, 10 U/ml penicillin and 10 μg/ml streptomycin. The HCV replicons used in these studies were generated at Bristol-Myers Squibb using the procedure described in WO2004014852. The coding sequence of the published genotype 1b HCV replicon (Lohmann, V., F. Korner, J.-O. Koch, U. Herian, L. Theilmann, and R. Bartenschlager 1999, Science 285:110-113) was synthesized by Operon Technologies, Inc. (Alameda, Calif.) using the sequence set forth in EMBL Accession No. AJ242652, nucleotides 1801 to 7758. The functional replicon was then assembled in plasmid pGem9zf(+) (Promega, Madison, Wis.) using standard molecular biology techniques. To create a replicon encoding a luciferase reporter, the gene encoding humanized Renilla Luciferase protein was introduced upstream of the neomycin phosphotransferase gene. The resulting replicon consists of (i) the HCV 5′ UTR fused to the first 12 amino acids of the capsid protein, (ii) the renilla luciferase gene, (iii) the neomycin phosphotransferase gene (neo), (iv) the IRES from encephalomyocarditis virus (EMCV), and (v) HCV NS3 to NS5B genes and the HCV 3′ UTR.
(§2) HCV replicon cell lines were isolated from colonies as described by Lohman, et. al (Lohmann, V., F. Korner, J.-O. Koch, U. Herian, L. Theilmann, and R. Bartenschlager 1999, Science 285:110-113) and used for all experiments. Briefly, replicon clones were linearized with ScaI and RNA transcripts synthesized in vitro using the T7 MegaScript transcription kit (Ambion, Austin, Tex.) according to manufacturer's directions. Ten to 20 μg of in vitro transcribed replicon RNA was introduced into 4−5×10^6 Huh-7 cells by transfection with DMRIE-C reagent (Invitrogen Corporation, Carlsbad, Calif.) following manufacturer's protocols. After 24 h, selective media containing 0.5 mg/mL Geneticin (G418, Gibco-BRL, Rockville, Md.) was added and media was changed every 3 to 5 days. After approximately 4 weeks, cells were expanded for further analysis. Cells were maintained at 37° C. in DMEM (Gibco-BRL, Rockville, Md.) with 10% heat inactivated calf serum (Sigma), penicillin/streptomycin, and 0.5 mg/ml G418.
(§3) To determine compound efficacy, HCV replicon cells were plated at a density of 10^4 per well in 96-well plates in DMEM media containing 10% FBS. Following incubation overnight, compounds serially diluted in DMSO, or DMSO alone, were added to individual wells to a final DMSO concentration of 0.5%. Cell plates were then incubated at 37° C. for 3 days prior to assaying for cytotoxicity and HCV inhibition. Cell viability was measured using an Alamar blue assay and CC50 values were calculated using the median effect equation.
(§4) Plates were then washed two times with PBS and renilla luciferase activity assayed using a Dual-Glo Luciferase Assay System (Promega Corporation, Madison, Wis.) according to the manufacturer's directions. Plates were read on a TopCount NXT Microplate Scintillation and Luminescence Counter (Packard Instrument Company). The 50% effective concentration (EC50) was calculated by using Excel Fit (Version 2.0, Build 30). Known x (compound concentration) and y (% relative to DMSO-only control wells) values were used to calculate the EC50 with Excel Fit equation 205, represented as y=A+((B−A)/(1+((C/x)^D))), where A and B equal the bottom and top plateaus of the curve, respectively, C equals the x value at the middle of the curve, and D equals the slope factor.
(§5) For inhibitor combination studies, IFN-α and inhibitors of HCV NS5A and the NS3 protease were each tested at eleven concentrations. Stock solutions, 200 times the desired final assay concentration, were prepared by 3-fold dilution in DMSO prior to addition to cells/media. The compounds were tested as monotherapies and in combinations with the compound of formula (I) at various concentration ratios.

The subject of assay [3] is HCV replicon. The assay can be described thus: HCV replicon luciferase assay, triple combinations with lambda interferons (genotype not stated). The protocol:
as §1, §2, §3, §4, §5

In assay [4] the target is HCV replicon. The description is as above. The note with it: monotherapy (Table 6).

Values joined by “and” are separate entries in the source; they are usually repeats but may differ in a detail not shown here. Identical values can stand only once. Like-named read-outs stand apart in the source and are kept apart here.

The term EC50 denotes the concentration needed to bring the measured effect to its halfway point. Turning to `C=C[C@@H]1C[C@]1(NC(=O)[C@@H]1C[C@@H](Oc2ncc(OC)c3ccc(Cl)cc23)CN1C(=O)[C@@H](NC(=O)OC(C)(C)C)C(C)(C)C)C(=O)NS(=O)(=O)C1CC1` [NS3 protease inhibitor of formula (II)], the concentration for a half-maximal effect (EC50) in assay [1] (Hepatitis C virus, 72 h, read-out: NS3 Protease Inhibitor EC50) was 7800 pM; in assay [1] (read-out: NS3 Protease Inhibitor EC50), 8500 pM; in assay [2] (Hepatitis C virus, 72 h, genotype 1b replicon, monotherapy, 3 days (Table 3), read-out: NS3 Protease Inhibitor EC50), 500 pM; in assay [2] (Hepatitis C virus, genotype 1b replicon cells, monotherapy (Table 4), read-out: NS3 Protease Inhibitor EC50) it was 1300 pM; in assay [2] (genotype 1b replicon cells, monotherapy (Table 4), read-out: NS3 Protease Inhibitor EC50), 2200 pM and 1900 pM and 1500 pM; in assay [2] (genotype 1b replicon, monotherapy, 3 days (Table 3), read-out: NS3 Protease Inhibitor EC50), 600 pM. Also, the concentration for a half-maximal effect (EC50) was 630 pM in the assay on HCV replicon [3] (Hepatitis C virus, monotherapy (Table 5), read-out: NS3 Protease Inhibitor EC50); 1400 pM in the assay on HCV replicon [3] (Hepatitis C virus, monotherapy (Table 6), read-out: NS3 Protease Inhibitor EC50); 947 pM and 1100 pM with HCV replicon [3] (monotherapy (Table 5), read-out: NS3 Protease Inhibitor EC50); 1200 pM and 2300 pM in the assay on HCV replicon [3] (monotherapy (Table 6), read-out: NS3 Protease Inhibitor EC50).
Regarding “rIFNλ1: Recombinant IL-29 expressed in E. coli as a modified N-terminal methionylated form of human IL-29”, at HCV replicon [4], the “rIFNλ1 EC50” value was 0.52 ng/mL and 0.27 ng/mL and 0.53 ng/mL.
Take `COC(=O)N[C@H](C(=O)N1CCC[C@H]1c1ncc(-c2ccc(-c3ccc(-c4cnc([C@@H]5CCCN5C(=O)[C@@H](NC(=O)OC)C(C)C)[nH]4)cc3)cc2)[nH]1)C(C)C` [NS5A inhibitor of formula (I)]: the concentration giving a half-maximal response (EC50) came out at 37 pM in assay [1] (Hepatitis C virus, 72 h, read-out: NS5A Inhibitor EC50); 45 pM in assay [1] (read-out: NS5A Inhibitor EC50); 3 pM in assay [2] (Hepatitis C virus, 72 h, genotype 1b replicon, monotherapy, 3 days (Table 3), read-out: NS5A Inhibitor EC50); 5 pM in assay [2] (Hepatitis C virus, genotype 1b replicon cells, monotherapy (Table 4), read-out: NS5A Inhibitor EC50); 6 pM in assay [2] (genotype 1b replicon cells, monotherapy (Table 4), read-out: NS5A Inhibitor EC50); 3 pM with HCV replicon [3] (Hepatitis C virus, monotherapy (Table 5), read-out: NS5A Inhibitor EC50). In addition, the 50% effective concentration (EC50) with HCV replicon [3] (Hepatitis C virus, monotherapy (Table 6), read-out: NS5A Inhibitor EC50) is 8 pM; in the assay on HCV replicon [3] (monotherapy (Table 5), read-out: NS5A Inhibitor EC50), 4 pM; in the assay on HCV replicon [3] (monotherapy (Table 6), read-out: NS5A Inhibitor EC50), 9 pM and 5 pM.
